Reference: US10273220B2, “Derivative of Inula lineariifolia lactone A” (SHANXI ZHENDONG LEADING BIOTECHNOLOGY CO., LTD., priority 2015, dated 2019)
Structures can show the parent of a compound that is named as a salt.

Legend:
Mice = assay: Single-dose toxicity in mice; type: in vivo; conditions: for deaths: three males and three females
Protocol: Mice were divided into four groups for each having three males and three females and treated by compound 1 at a single-dose of 200, 600, 1800 and 5400 mg/kg, respectively.

[1] = system: experimental autoimmune encephalomyelitis (EAE) model; assay: Pharmacodynamics on EAE model (MOG 35-55 induced), EAE score and H&E/LFB staining of cervical spinal cord; type: in vivo, C57BL/6 mice; conditions: for incidence of EAE: intragastric administration (FIG. 5, FIG. 6)
[2] = Bioavailability by oral administration; type: in vivo
[3] = system: experimental autoimmune encephalomyelitis (EAE) model; conditions: mice; cited from earlier work
Sprague Dawley rats = assay: 7-day repeated intragastric toxicity in rats; type: in vivo; conditions: intragastrically daily at 75, 150, 300 mg/kg for 7 consecutive days, 3 males and 3 females per group
Protocol: Sprague Dawley rats, each group having 3 males and 3 females were administrated intragastrically daily at 75, 150, 300 mg/kg respectively for 7 consecutive days.

[4] = 30 mg/kg/day intragastrically, vs EAE model group
[5] = crystal type A, 15 mg/kg once daily oral gavage, vs EAE model group

Compound	deaths (Mice; single dose 1800 mg/kg)	deaths (Mice; single dose 5400 mg/kg)	toxic reactions (Mice; single dose 200 and 600 mg/kg, three males and three females per group)	course of EAE ([1]; 30 mg/kg)	disease severity (EAE score) ([1]; 30 mg/kg/day intragastrically, from day 0 of immunization, 30 days)	onset of EAE ([1]; 30 mg/kg/day intragastrically, from day 0 of immunization, 30 days, in 0.5% CMC-Na)	arrangement of the organization (blood vessel and tissue) [1, 4]	demyelination (LFB staining) [1, 4]	inflammatory cells (H&E analysis) [1, 4]	incidence of EAE [1]	bioavailability by oral administration [2]	therapeutic effect on EAE model [3]	onset of EAE ([1]; crystal type A in injection water, 15 mg/kg once daily oral gavage from day 0)	course of EAE ([1]; crystal type A, 15 mg/kg once daily oral gavage)	disease severity (EAE score) ([1]; crystal type A, 15 mg/kg once daily oral gavage from day 0)	demyelination (LFB staining) ([1]; crystal type A, 15 mg/kg once daily oral gavage, vs EAE model control)	arrangement of the organization (blood vessel and tissue) [1, 5]	inflammatory cells (H&E analysis) [1, 5]	toxic reactions (Sprague Dawley rats)
CC(=O)O[C@H]1C[C@H](OC(C)=O)[C@]2(C)[C@@H]1[C@H](C)C[C@@H]1OC(=O)[C@H](CN(C)C)[C@H]1[C@@H]2OC(C)=O [Compound I, dimethylamine 4-O-acetyl inula lineariifolia lactone A]	One female mouse died	Five mice except one male mouse died	No obvious toxic reactions were observed	ameliorated	reduced	delayed	basically returned to normal condition	significantly reduced	reduced	significantly reduce									
C=C1C(=O)O[C@H]2C[C@@H](C)[C@@H]3[C@@H](OC(C)=O)C[C@H](O)[C@@]3(C)[C@@H](OC(C)=O)[C@H]12 [Inula lineariifolia lactone A]											low	good therapeutic effect							
CC(=O)O[C@H]1C[C@H](OC(C)=O)[C@]2(C)[C@@H]1[C@H](C)C[C@@H]1OC(=O)[C@H](CN(C)C)[C@H]1[C@@H]2OC(C)=O [Compound IV, dimethylamine 4-O-acetyl inula lineariifolia lactone A fumarate]										significantly reduce			delayed	ameliorated	reduced	significant lower	basically returned to normal condition	reducing	No obvious toxic reactions were observed
